For nine compounds, pest or weed control results are on record in US20230017045A1, “PYRIDINE AND PYRIMIDINE CARBOXYLATE HERBICIDES AND METHODS OF USE THEREOF” (Dow AgroSciences LLC, priority 2017, published 2023).

This assay relates to test plant species. Briefly: Post-emergent herbicidal activity test (greenhouse, foliar spray, visual growth reduction). In kind it is in vivo. As to conditions: post-emergence, 336 h, 140 g ai/ha. Summed up: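 Visual percent injury (0-100) rated 14 d after treatment, relative to nontreated and solvent-blank plants. Test plants at first or second true leaf stage received an overhead track-sprayer application at 187 L/ha. Compounds were formulated in aqueous acetone/DMSO carrier containing crop oil concentrate and X-77 surfactant.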

Setting [1] is: ECHCG: barnyardgrass (Echinochloa crus-galli), 14 days after application, read-out: Visual Growth Reduction (%) 14 Days After Application, ECHCG.
[2] abbreviates: IPOHE: ivy-leaf morning glory (Ipomoea hederacea), 14 days after application, read-out: Visual Growth Reduction (%) 14 Days After Application, IPOHE.
The mark [3] stands for this setting: KCHSC: kochia (Bassia scoparia), 14 days after application, read-out: Visual Growth Reduction (%) 14 Days After Application, KCHSC.
Setting [4] is: ORYSA: rice (Oryza sativa), 14 days after application, read-out: Visual Growth Reduction (%) 14 Days After Application, ORYSA.
Where [5] appears, read: SETFA: giant foxtail (Setaria faberi), 14 days after application, read-out: Visual Growth Reduction (%) 14 Days After Application, SETFA.
Where [6] appears, read: SORVU: grain sorghum (Sorghum vulgare), 14 days after application, read-out: Visual Growth Reduction (%) 14 Days After Application, SORVU.
[7] abbreviates: STEME: common chickweed (Stellaria media), 14 days after application, read-out: Visual Growth Reduction (%) 14 Days After Application, STEME.
Where [8] appears, read: TRZAS: wheat, spring (Triticum aestivum), 14 days after application, read-out: Visual Growth Reduction (%) 14 Days After Application, TRZAS.
The mark [9] stands for this setting: blackgrass (Alopecurus myosuroides), 14 Days After Application, read-out: Visual Growth Reduction (%) ALOMY.
Setting [10] is: canada thistle (Cirsium arvense), 14 Days After Application, read-out: Visual Growth Reduction (%) CIRAR.
[11] abbreviates: crabgrass (Digitaria sanguinalis), 14 Days After Application, read-out: Visual Growth Reduction (%) DIGSA.
Setting [12] is: lambsquarters (Chenopodium album), 14 Days After Application, read-out: Visual Growth Reduction (%) CHEAL.
The mark [13] stands for this setting: redroot pigweed (Amaranthus retroflexus), 14 Days After Application, read-out: Visual Growth Reduction (%) AMARE.
The mark [14] stands for this setting: wild oat (Avena fatua), 14 Days After Application, read-out: Visual Growth Reduction (%) AVEFA.
Setting [15] is: yellow nutsedge (Cyperus esculentus), 14 Days After Application, read-out: Visual Growth Reduction (%) CYPES.

Read-outs that look alike come from different tables or passages of the source.

On to `COC(=O)c1nc(-c2ccc(C#N)cc2OC)c(F)cc1Cl` [F351, Methyl 3-chloro-6-(4-cyano-2-methoxyphenyl)-5-fluoropicolinate], for which the pest or weed control at 140 g/ha was 30 to 44% under setting [1]; 95 to 100% under setting [2]; 30 to 44% under setting [3]; 0 to 29% under setting [4]; 75 to 84% under setting [5]; 75 to 84% under setting [6]. The pest or weed control at 140 g/ha under setting [7] lay within 0 to 29%; the pest or weed control at 140 g/ha under setting [8] lay in the range of 0 to 29%; the pest or weed control at 140 g/ha under setting [9] lay within 0 to 29%; the pest or weed control at 140 g/ha under setting [10] lay within 0 to 29%; the pest or weed control at 140 g/ha under setting [11] was in the range of 30 to 44%; the pest or weed control at 140 g/ha under setting [12] fell in the range of 75 to 84%. The pest or weed control at 140 g/ha fell in the range of 60 to 74% under setting [13], 0 to 29% under setting [14] and 0 to 29% under setting [15].
With `O=C(O)c1nc(-c2ccc(C(F)(F)F)cc2Cl)c(F)cc1Cl` [F352, 3-chloro-6-(2-chloro-4-(trifluoromethyl)phenyl)-5-fluoropicolinic acid], the pest or weed control at 140 g/ha by setting is: under setting [1], 95 to 100%; under setting [2], 95 to 100%; under setting [3], 85 to 94%; under setting [4], 85 to 94%; under setting [5], 95 to 100%; under setting [6], 95 to 100%. The pest or weed control at 140 g/ha is 60 to 74% under setting [7]; 95 to 100% under setting [8]; 75 to 84% under setting [9]; 95 to 100% under setting [10]; 95 to 100% under setting [11]; 95 to 100% under setting [12]. In addition, the pest or weed control at 140 g/ha was in the range of 95 to 100% under setting [13], 85 to 94% under setting [14] and 0 to 29% under setting [15].
As for `COC(=O)c1nc(-c2cc3c(cc2OC)OC(F)(F)O3)ccc1Cl` [F353, Methyl 3-chloro-6-(2,2-difluoro-6-methoxybenzo[d][1,3]dioxol-5-yl)picolinate], the pest or weed control at 140 g/ha under setting [1] was 0 to 29%; the pest or weed control at 140 g/ha under setting [2] lay in the range of 95 to 100%; the pest or weed control at 140 g/ha under setting [3] was 0 to 29%; the pest or weed control at 140 g/ha under setting [4] was in the range of 0 to 29%; the pest or weed control at 140 g/ha under setting [5] is 0 to 29%; the pest or weed control at 140 g/ha under setting [6] fell in the range of 45 to 59%. Besides, the pest or weed control at 140 g/ha runs as follows: under setting [7], 0 to 29%; under setting [8], 0 to 29%; under setting [9], 0 to 29%; under setting [10], 0 to 29%; under setting [11], 0 to 29%; under setting [12], 45 to 59%. For the same compound, the pest or weed control at 140 g/ha under setting [13] fell in the range of 0 to 29%, the pest or weed control at 140 g/ha under setting [14] fell in the range of 0 to 29% and the pest or weed control at 140 g/ha under setting [15] is 0 to 29%.
For `COC(=O)c1nc(-c2ccc(O)cc2Cl)ccc1Cl` [F355, methyl 3-chloro-6-(2-chloro-4-hydroxyphenyl)picolinate], the pest or weed control at 140 g/ha runs as follows: under setting [1], 0 to 29%; under setting [2], 0 to 29%; under setting [3], 0 to 29%; under setting [4], 0 to 29%; under setting [5], 0 to 29%; under setting [6], 0 to 29%. Further, the pest or weed control at 140 g/ha by setting is: under setting [7], 0 to 29%; under setting [8], 0 to 29%; under setting [9], 0 to 29%; under setting [10], 75 to 84%; under setting [11], 0 to 29%; under setting [12], 0 to 29%. Also, the pest or weed control at 140 g/ha under setting [13] is 0 to 29%, the pest or weed control at 140 g/ha under setting [14] was 0 to 29% and the pest or weed control at 140 g/ha under setting [15] was 0 to 29%.
On to `COc1cc2c(cc1-c1ccc(Cl)c(C(=O)O)n1)OC(F)(F)O2` [F356, 3-Chloro-6-(2,2-difluoro-6-methoxybenzo[d][1,3]dioxol-5-yl)picolinic acid], for which the pest or weed control at 140 g/ha fell in the range of 0 to 29% under setting [1]; 95 to 100% under setting [2]; 0 to 29% under setting [3]; 0 to 29% under setting [4]; 0 to 29% under setting [5]; 30 to 44% under setting [6]. Moreover, the pest or weed control at 140 g/ha under setting [7] was in the range of 0 to 29%; the pest or weed control at 140 g/ha under setting [8] fell in the range of 0 to 29%; the pest or weed control at 140 g/ha under setting [9] is 0 to 29%; the pest or weed control at 140 g/ha under setting [10] fell in the range of 0 to 29%; the pest or weed control at 140 g/ha under setting [11] was in the range of 0 to 29%; the pest or weed control at 140 g/ha under setting [12] lay within 60 to 74%. Further, the pest or weed control at 140 g/ha lay in the range of 0 to 29% under setting [13], 0 to 29% under setting [14] and 0 to 29% under setting [15].
On to `COC(=O)c1nc(-c2ccc(C=O)c(F)c2OC)c(F)cc1Cl` [F357, methyl 3-chloro-5-fluoro-6-(3-fluoro-4-formyl-2-methoxyphenyl)picolinate], for which the pest or weed control at 140 g/ha is, setting by setting: under setting [1], 0 to 29%; under setting [2], 0 to 29%; under setting [3], 0 to 29%; under setting [4], 0 to 29%; under setting [5], 0 to 29%; under setting [6], 0 to 29%. For the same compound, the pest or weed control at 140 g/ha lay within 0 to 29% under setting [7]; 0 to 29% under setting [8]; 0 to 29% under setting [9]; 0 to 29% under setting [10]; 0 to 29% under setting [11]; 0 to 29% under setting [12]. For the same compound, the pest or weed control at 140 g/ha under setting [13] was 0 to 29%, the pest or weed control at 140 g/ha under setting [14] lay within 0 to 29% and the pest or weed control at 140 g/ha under setting [15] lay in the range of 0 to 29%.
With `COC(=O)c1nc(-c2ccc(N)cc2Cl)c(F)cc1Cl` [F358, Methyl 6-(4-amino-2-chlorophenyl)-3-chloro-5-fluoropicolinate], the pest or weed control at 140 g/ha by setting is: under setting [1], 0 to 29%; under setting [2], 0 to 29%; under setting [3], 0 to 29%; under setting [4], 0 to 29%; under setting [5], 0 to 29%; under setting [6], 0 to 29%. Also, the pest or weed control at 140 g/ha was 0 to 29% under setting [7]; 0 to 29% under setting [8]; 0 to 29% under setting [9]; 0 to 29% under setting [10]; 0 to 29% under setting [11]; 0 to 29% under setting [12]. Besides, the pest or weed control at 140 g/ha is 0 to 29% under setting [13], 0 to 29% under setting [14] and 0 to 29% under setting [15].
In the case of `COC(=O)c1nc(-c2cc(F)c(C(F)(F)F)cc2OC)c(F)cc1Cl` [F359, Methyl 3-chloro-5-fluoro-6-(5-fluoro-2-methoxy-4-(trifluoromethyl)phenyl)picolinate], the pest or weed control at 140 g/ha runs as follows: under setting [1], 95 to 100%; under setting [2], 95 to 100%; under setting [3], 85 to 94%; under setting [4], 0 to 29%; under setting [5], 95 to 100%; under setting [6], 85 to 94%. Also, the pest or weed control at 140 g/ha runs as follows: under setting [7], 0 to 29%; under setting [8], 60 to 74%; under setting [9], 30 to 44%; under setting [10], 75 to 84%; under setting [11], 30 to 44%; under setting [12], 95 to 100%. For the same compound, the pest or weed control at 140 g/ha under setting [13] is 95 to 100%, the pest or weed control at 140 g/ha under setting [14] lay in the range of 75 to 84% and the pest or weed control at 140 g/ha under setting [15] is 0 to 29%.
On to `COC(=O)c1nc(-c2cc(C)c(C(F)(F)F)cc2F)c(F)cc1Cl` [F360, Methyl 3-chloro-5-fluoro-6-(2-fluoro-5-methyl-4-(trifluoromethyl)phenyl)picolinate], for which the pest or weed control at 140 g/ha by setting is: under setting [1], 0 to 29%; under setting [2], 95 to 100%; under setting [3], 45 to 59%; under setting [4], 0 to 29%; under setting [5], 0 to 29%; under setting [6], 0 to 29%. Also, the pest or weed control at 140 g/ha under setting [7] lay in the range of 0 to 29%; the pest or weed control at 140 g/ha under setting [8] lay within 0 to 29%; the pest or weed control at 140 g/ha under setting [9] was in the range of 0 to 29%; the pest or weed control at 140 g/ha under setting [10] is 0 to 29%; the pest or weed control at 140 g/ha under setting [11] was 0 to 29%; the pest or weed control at 140 g/ha under setting [12] lay within 95 to 100%. Also, the pest or weed control at 140 g/ha reads like this: under setting [13], 95 to 100%; under setting [14], 0 to 29%; under setting [15], 0 to 29%.
